Patent publication US20110105430A1, “PYRROLO [2,3-C] PYRIDINE DERIVATIVES AS P38 KINEASE INHIBITING AGENTS” (priority 2008, published 2011)
pIC50: −log10 of the molar value.

How the values were obtained:
p38α = biological target: T1, p38α (Homo sapiens, UniProt Q16539); assay: p38 kinase assay, p38-α with peptide substrate (Caliper LabChip); format: biochemical
T1 construct: purchased Millipore
Experimental: Alternatively, p38 kinase assays were performed in a reaction volume of 70 μL in a 384-well plate, at 30° for […] under the following conditions: 50 mM Hepes, pH 7.4, 10 mM MgCl2, 1 mg/ml FA Free BSA, 1 mM DTT, 10 μM ATP, 10 μM p38 peptide [Caliper Life Sciences FL-Peptide 8 (5-FAM-IPTSPITTTYFFFKKK-COOH)] and 5.7 nM p38-α (Millipore), or 14.3 nM unactivated MAPKAP kinase-2, 0.18 nM p38-α (Millipore) and 2 uM RSK peptide [Caliper Life Sciences FL-Peptide 11 (5-FAM-KKLNRTLSVA-COOH)]. Serial dilutions of compounds were added to each reaction in 700 nL DMSO. 700 nL of DMSO was added to the control wells of the reaction plate as the no inhibitor control for each inhibitor titration. The reaction was terminated by the addition of 15 μL of a 100 mM EDTA. Product formation was analyzed using the Caliper LabChip 3000. The Separation buffer contained 100 mM HEPES pH 7.5, 0.015% Brij-35, 2.5% Coating Reagent #3 (Caliper Life Sciences) and 10 mM EDTA. Calculation of the substrate product ratios are performed using the HTS Well Analyzer software provided by Caliper Life Sciences and the percent inhibition at each compound concentration is determined.

TNF-α = assay: IC50 hWB (TNF-α release assay); format: cell-based; settings: Homo sapiens
Experimental: Blood was obtained from healthy volunteers by venipuncture using sodium heparin as an anti-coagulant. Peripheral blood mononuclear cells (PBMCs) were isolated using Lymphocyte Separation Medium (ICN) according to manufacturers specifications. Isolated PBMCs were washed 3 times with FIBSS and diluted to a density of 2×10^6 cells/mL in RPMI+5% autologous human serum. 50 μL of the serial dilutions of inhibitor were added to wells of a 96-well tissue culture plate followed by addition of 100 μL of PBMCs and then 50 μL of RPMI complete medium containing 400 ng/mL LPS. A control well of cells without compound but with LPS (maximal stimulation control) and one without compound and without LPS (background control) were included in each titration. The cells were incubated for 16 hours in a humidified incubator at 37° C., 5% CO2. Supernatants were then harvested and TNF-α levels were quantified by immunoassay using commercial reagents (R&D, Inc).

T1 sequence (Q16539 whole entry): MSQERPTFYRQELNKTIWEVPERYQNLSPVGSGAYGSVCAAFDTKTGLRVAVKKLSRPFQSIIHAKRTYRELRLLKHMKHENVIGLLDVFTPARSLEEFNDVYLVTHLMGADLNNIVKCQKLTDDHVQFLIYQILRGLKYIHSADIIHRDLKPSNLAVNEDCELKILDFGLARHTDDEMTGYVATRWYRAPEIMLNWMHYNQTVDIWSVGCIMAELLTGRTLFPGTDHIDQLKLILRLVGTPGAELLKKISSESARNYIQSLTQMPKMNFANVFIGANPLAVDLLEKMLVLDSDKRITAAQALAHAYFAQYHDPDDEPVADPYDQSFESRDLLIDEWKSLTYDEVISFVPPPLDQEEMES

| pIC50 (p38α) | pIC50 (TNF-α) | SMILES |
| --- | --- | --- |
| 7.51 | 6.44 | O=C(c1c(F)cc(F)cc1F)c1c[nH]c2c(=O)n(Cc3nc4cc(C(F)(F)F)cnc4[nH]3)ccc12 [Example 19, 3-(2,4,6-trifluorobenzoyl)-6-{[6-(trifluoromethyl)-3H-imidazo[4,5-b]pyridin-2-yl]methyl}-1,6-dihydro-7H-pyrrolo[2,3-c]pyridin-7-one] |
| 7.74 | 7.08 | O=C(c1c(F)cc(F)cc1F)c1c[nH]c2c(=O)n(Cc3nc4cccnc4[nH]3)ccc12 [Example 6, 6-(3H-imidazo[4,5-b]pyridin-2-ylmethyl)-3-(2,4,6-trifluorobenzoyl)-1,6-dihydro-7H-pyrrolo[2,3-c]pyridin-7-one] |
| 7.57 | 6.89 | O=C(c1c(F)cc(F)cc1F)c1c[nH]c2c(=O)n(Cc3nc4cccc(F)c4[nH]3)ccc12 [Example 2, 6-[(4-fluoro-1H-benzimidazol-2-yl)methyl]-3-(2,4,6-trifluorobenzoyl)-1,6-dihydro-7H-pyrrolo[2,3-c]pyridin-7-one] |
| 8.52 | – | CNC(=O)c1ccc2nc(Cn3ccc4c(C(=O)c5c(F)cc(F)cc5F)c[nH]c4c3=O)[nH]c2c1 [Example 27, N-methyl-2-{[7-oxo-3-(2,4,6-trifluorobenzoyl)-1,7-dihydro-6H-pyrrolo[2,3-c]pyridin-6-yl]methyl}-1H-benzimidazole-5-carboxamide] |
| 9.00 | – | CNC(=O)c1ccn2cc(Cn3ccc4c(C(=O)c5c(F)cc(F)cc5F)c[nH]c4c3=O)nc2c1 [Example 25, N-methyl-2-{[7-oxo-3-(2,4,6-trifluorobenzoyl)-1,7-dihydro-6H-pyrrolo-[2,3-c]pyridin-6-yl]methyl}-imidazo[1,2-c]pyridine-7-carboxamide] |
| 6.97 | 6.30 | O=c1c2[nH]cc(Cc3c(F)cc(F)cc3F)c2ccn1Cc1nc2ncccc2[nH]1 [Example 29, 6-(1H-imidazo[4,5-b]pyridin-2-ylmethyl)-3-(2,4,6-trifluorobenzyl)-1,6-dihydro-7H-pyrrolo[2,3-c]pyridin-7-one] |
| 8.07 | 6.99 | O=C(NCC(F)(F)F)c1cnc2nc(Cn3ccc4c(C(=O)c5c(F)cc(F)cc5F)c[nH]c4c3=O)[nH]c2c1 [Example 15, 2-{[7-oxo-3-(2,4,6-trifluorobenzoyl)-1,7-dihydro-6H-pyrrolo[2,3-c]pyridin-6-yl]methyl}-N-(2,2,2-trifluoroethyl)-3H-imidazo[4,5-b]pyridine-6-carboxamide] |
| 7.40 | 5.86 | O=C(c1c(F)cc(F)cc1F)c1c[nH]c2c(=O)n(Cc3nc4ccccc4o3)ccc12 [Example 10, 6-(1,3-benzoxazol-2-ylmethyl)-3-(2,4,6-trifluorobenzoyl)-1,6-dihydro-7H-pyrrolo[2,3-c]pyridin-7-one] |
| 8.42 | 7.68 | CN(C)C(=O)c1ccn2cc(Cn3ccc4c(C(=O)c5c(F)cc(F)cc5F)c[nH]c4c3=O)nc2c1 [Example 24, N,N-dimethyl-2-{[7-oxo-3-(2,4,6-trifluorobenzoyl)-1,7-dihydro-6H-pyrrolo[2,3-c]pyridin-6-yl]methyl}imidazo[1,2-a]pyridine-7-carboxamide] |
| 7.80 | 6.66 | Cc1ccc2nc(Cn3ccc4c(C(=O)c5c(F)cccc5F)c[nH]c4c3=O)cn2n1 [Example 9, 3-(2,6-difluorobenzoyl)-6-[(6-methylimidazo[1,2-b]pyridazin-2-yl)methyl]-1,6-dihydro-7H-pyrrolo[2,3-c]pyridin-7-one] |
| 7.72 | 6.66 | O=C(c1c(F)cc(F)cc1F)c1c[nH]c2c(=O)n(Cc3nc4ncc(C(=O)N5CCOCC5)cc4[nH]3)ccc12 [Example 16, 6-{[6-(morpholin-4-ylcarbonyl)-1H-imidazo[4,5-b]pyridin-2-yl]methyl}-3-(2,4,6-trifluorobenzoyl)-1,6-dihydro-7H-pyrrolo[2,3-c]pyridin-7-one] |
| 7.92 | 6.70 | O=C(c1c(F)cc(F)cc1F)c1c[nH]c2c(=O)n(Cc3cn4ccc(C(F)(F)F)cc4n3)ccc12 [Example 18, 3-(2,4,6-trifluorobenzoyl)-6-{[(7-trifluoromethyl)imidazo[1,2-c]pyridin-2-yl]methyl}-1,6-dihydro-7H-pyrrolo[2,3-c]pyridin-7-one] |
| 7.54 | 5.82 | O=C(c1c(F)cncc1F)c1c[nH]c2c(=O)n(Cc3cc4ccccn4n3)ccc12 [Example 13, 3-(3,5-difluoroisonicotinoyl)-6-(pyrazolo[1,5-c]pyridin-2-ylmethyl)-1,6-dihydro-7H-pyrrolo[2,3-c]pyridin-7-one] |
| 8.70 | – | O=C(O)c1ccn2cc(Cn3ccc4c(C(=O)c5c(F)cc(F)cc5F)c[nH]c4c3=O)nc2c1 [Example 23, 2-{[7-oxo-3-(2,4,6-trifluorobenzoyl)-1,7-dihydro-6H-pyrrolo[2,3-c]pyridin-6-yl]methyl}imidazo[1,2-a]pyridine-7-carboxylic acid] |
| 7.89 | – | O=C(c1c(F)cc(F)cc1F)c1c[nH]c2c(=O)n(Cc3nc4ccncc4[nH]3)ccc12 [Example 17, 6-(3H-imidazo[4,5-c]pyridin-2-ylmethyl)-3-(2,4,6-trifluorobenzoyl)-1,6-dihydro-7H-pyrrolo[2,3-c]pyridin-7-one] |
| 7.62 | 6.60 | O=C(c1c(F)cc(F)cc1F)c1c[nH]c2c(=O)n(Cc3nc4ncc(Br)cc4[nH]3)ccc12 [Example 8, 6-[(6-bromo-3H-imidazo[4,5-b]pyridin-2-yl)methyl]-3-(2,4,6-trifluorobenzoyl)-1,6-dihydro-7H-pyrrolo[2,3-c]pyridin-7-one] |
| 8.89 | – | NC(=O)c1ccn2cc(Cn3ccc4c(C(=O)c5c(F)cc(F)cc5F)c[nH]c4c3=O)nc2c1 [Example 22, 2-{[7-oxo-3-(2,4,6-trifluorobenzoyl)-1,7-dihydro-6H-pyrrolo[2,3-c]pyridin-6-yl]methyl}imidazo[1,2-a]pyridine-7-carboxamide] |
| 7.42 | 6.61 | O=C(c1c(F)cccc1F)c1c[nH]c2c(=O)n(Cc3nc4cccnc4[nH]3)ccc12 [Example 7, 3-(2,6-difluorobenzoyl)-6-(3H-imidazo[4,5-b]pyridin-2-ylmethyl)-1,6-dihydro-7H-pyrrolo[2,3-c]pyridin-7-one] |
| 7.35 | 6.34 | O=C(c1c(F)cc(F)cc1F)c1c[nH]c2c(=O)n(Cc3nc4ccccc4[nH]3)ccc12 [Example 1, 6-(1H-benzimidazol-2-ylmethyl)-3-(2,4,6-trifluorobenzoyl)-1,6-dihydro-7H-pyrrolo[2,3-c]pyridin-7-one] |
| 7.42 | 5.69 | O=C(c1c(F)cccc1F)c1c[nH]c2c(=O)n(Cc3nc4ncc(C(F)(F)F)cc4[nH]3)ccc12 [Example 21, 3-(2,6-difluorobenzoyl)-6-{[6-(trifluoromethyl)-3H-imidazo[4,5-b]pyridin-2-yl]methyl}-1,6-dihydro-7H-pyrrolo[2,3-c]pyridin-7-one] |
| 7.66 | 6.31 | Cc1cc(F)c(C(=O)c2c[nH]c3c(=O)n(Cc4cc5ccccn5n4)ccc23)c(F)c1 [Example 14, 3-(2,6-difluoro-4-methylbenzoyl)-6-(pyrazolo[1,5-a]pyridin-2-ylmethyl)-1,6-dihydro-7H-pyrrolo[2,3-c]pyridin-7-one] |
| 7.64 | 6.89 | O=C(c1c(F)cc(F)cc1F)c1c[nH]c2c(=O)n(Cc3nc4ccc(F)c(F)c4[nH]3)ccc12 [Example 3, 6-[(4,5-difluoro-1H-benzimidazol-2-yl)methyl]-3-(2,4,6-trifluorobenzoyl)-1,6-dihydro-7H-pyrrolo[2,3-c]pyridin-7-one] |
| 8.28 | 7.06 | O=C(c1c(F)cc(F)cc1F)c1c[nH]c2c(=O)n(Cc3cn4cccnc4n3)ccc12 [Example 5, 6-(imidazo[1,2-a]pyrimidin-2-ylmethyl)-3-(2,4,6-trifluorobenzoyl)-1,6-dihydro-7H-pyrrolo[2,3-c]pyridin-7-one] |
| 6.60 | – | O=c1c2[nH]cc(C(O)c3ccc(F)cc3F)c2ccn1Cc1cn2ccccc2n1 (centres unmarked) [Example 28, 3-[(2,4-difluorophenyl)(hydroxy)methyl]-6-(imidazo[1,2-a]pyridin-2-ylmethyl)-1,6-dihydro-7H-pyrrolo[2,3-c]pyridin-7-one] |
| 7.74 | 6.79 | O=C(c1ccc(F)cc1F)c1c[nH]c2c(=O)n(Cc3cn4ccccc4n3)ccc12 [Example 20, 3-(2,4-difluorobenzoyl)-6-(imidazo[1,2-a]pyridin-2-ylmethyl)-1,6-dihydro-7H-pyrrolo[2,3-c]pyridin-7-one] |
